Assay results: patent US20200223837A1, “BENZOFURAN AMIDES AND HETEROAROMATIC ANALOGUES THEREOF FOR USE IN THERAPY” (European Molecular Biology Laboratory, priority 2017, published 2020)
Like-named read-outs stand apart in the source and are kept apart here.

Tests used:
Format in all cases: cell-based
[1] = system: ProQinase 100 cancer cell-line panel; test: Growth inhibition of the ProQinase 100 cancer cell-line panel
Experimental: HeLa, A549 and HCT116 cells were grown in high-glucose Dulbecco's Modified Eagle's Medium (DMEM, Sigma)+10% FBS+1% penicillin and streptomycin+1% L-glutamine, at 37° C. with 5% CO2 and 95% humidity. Cytotoxic screening of the ProQinase panel of 100 cell-lines was performed by ProQinase (Freiburg, Germany). Patient derived CLL isolates were prepared and screened as described by Dietrich et al. (S. Dietrich et al., J Clin Invest, 2018, 128(1), 427-445). Cell viability was determined after 48 hours using the ATP-based CellTiter Glo assay (Promega). Luminescence was measured with a Tecan Infinite F200 Microplate Reader (Tecan Group AG) and with an integration time of 0.2 seconds per well.
The ProQinase 100 cell-line panel is a cell proliferation assay service of ProQinase comprising the EC50 determination of a test compound against a defined panel of 100 cancer cell lines from 18 different tissue types.
The inhibitory growth effect of the compound of example 85 on the ProQinase 100 cancer cell-line panel was evaluated by ProQinase.

[2] = system: HCT116 (colon adenocarcinoma) cells; test: Glucose uptake in HCT116 cells
Experimental: (§1) Prompted by these observations, the glucose uptake and lactate excretion in HeLa cells treated for 16 hours with the compound of examples 64 was evaluated. […] A reduction in glucose uptake was also observed in A549 (lung adenocarcinoma) and HCT116 (colon adenocarcinoma) cells.

[3] = system: A549 (lung adenocarcinoma) cells; test: Glucose uptake in A549 cells
Experimental: as §1

HeLa cells = test: Glucose uptake and lactate excretion in HeLa cells; details: HeLa cells treated for 16 hours
Experimental: as §1

EC50 ([1]; median over 100 cell-lines, read-out: median growth inhibition EC50) [µM]	EC50 ([1]; range over all 100 cell-lines, read-out: growth inhibition EC50) [µM]	Structure (SMILES)	cell-lines whose proliferation is inhibited ([1]; of 100 cell-lines)	glucose uptake [2]	glucose uptake [3]	lactic acid secretion (HeLa cells)	glucose uptake reduced (HeLa cells; at and above concentrations giving maximal EGR1 expression)
3.2	0.58 to 16	O=C(Cc1coc2c(Cl)c(Cl)ccc12)Nc1ncc(C(F)(F)F)s1 [Example 85, 2-(6,7-Dichlorobenzofuran-3-yl)-N-[5-(trifluoromethyl)thiazol-2-yl]acetamide]	100	–	–	–	–
–	–	Cc1cnc(NC(=O)Cc2coc3cc4c(cc23)CCC4)s1 [Example 64, 2-(6,7-Dihydro-5H-cyclopenta[f]benzofuran-3-yl)-N-(5-methylthiazol-2-yl)acetamide]	–	reduction	reduction	concomitant reduction	approximately 80%
